# Results as given in patent US6797255B1, “Methods and compositions for enhancing magnetic resonance imaging” (Mallinckrodt Inc., priority 1985, dated 2004).
# Assays:
# [1] = Solubility of the complex in water; type: physicochemical
# Experimental: (§1) The complex, dihydrogen bis(N-[N′-(2,6-diisopropylphenyl)carbamoylmethyl]iminodiaceto)manganese(II) hydrate, was thus isolated as the hydrated species. The solubility of the complex in water was determined to be approximately 0.1% w/v. The relaxation parameters T1 and T2 of a 10-^−3M solution of the complex in a 90 MHz NMR experiment were determined to be 0.107 sec. and 0.007 sec. respectively. The T1 and T2 values for water are 2.51 sec. and 0.150 sec., respectively.
# (§2) The relaxation parameters T1 and T2 of a 10^−3M solution of the complex in a 90 MHz NMR experiment were determined to be 126 milliseconds and 1.5 milliseconds, respectively.
# [2] = Relaxation parameters T1 and T2 of a 10^−3M solution in a 90 MHz NMR experiment; type: physicochemical; conditions: 10-^−3M solution
# Experimental: as §1, §2
# [3] = Toxicity profile of the gadolinium complex; conditions: in vivo
# liver = assay: T1 and T2 lowering effects of the gadolinium complex in the liver; conditions: in vivo
Structure (SMILES),solubility of the complex in water [1],relaxation parameter T1 [2] [s],relaxation parameter T2 [2] [s],LD50 [3],toxicity profile [3],T1 and T2 lowering effects in the liver (liver)
CC(C)c1cccc(C(C)C)c1NC(=O)CN(CC(=O)[O-])CC(=O)O.CC(C)c1cccc(C(C)C)c1NC(=O)CN(CC(=O)[O-])CC(=O)O.O.[Mn+2] [Example 1],approximately 0.1 % w/v,0.107,0.007,,,
"Cc1cccc(C)c1NC(=O)CN(CC(=O)[O-])CC(=O)O.Cc1cccc(C)c1NC(=O)CN(CC(=O)[O-])CC(=O)[O-].O.O.[Gd+3] [hydrogen bis(N-[N′-(2,6-dimethylphenyl)carbamoylmethyl]iminodiaceto)gadolinium(III) dihydrate]",,,,about 0.2 mmol/kg,"persistent, delayed toxicity",relatively poor T1 and T2 lowering effects in the liver
